# Ends that are not written are not given here.
# Experiments:
# [1] = design: method as in earlier work; settings: cited from earlier work
# PvNMT [2] = molecular target: T1, PvNMT (Plasmodium vivax, UniProt A5K1A2); experiment: Fluorogenic NMT inhibition assay, PvNMT; format: biochemical; settings: recombinant enzyme; mean of duplicate or triplicate experiments
# T1 sequence (A5K1A2 1-410): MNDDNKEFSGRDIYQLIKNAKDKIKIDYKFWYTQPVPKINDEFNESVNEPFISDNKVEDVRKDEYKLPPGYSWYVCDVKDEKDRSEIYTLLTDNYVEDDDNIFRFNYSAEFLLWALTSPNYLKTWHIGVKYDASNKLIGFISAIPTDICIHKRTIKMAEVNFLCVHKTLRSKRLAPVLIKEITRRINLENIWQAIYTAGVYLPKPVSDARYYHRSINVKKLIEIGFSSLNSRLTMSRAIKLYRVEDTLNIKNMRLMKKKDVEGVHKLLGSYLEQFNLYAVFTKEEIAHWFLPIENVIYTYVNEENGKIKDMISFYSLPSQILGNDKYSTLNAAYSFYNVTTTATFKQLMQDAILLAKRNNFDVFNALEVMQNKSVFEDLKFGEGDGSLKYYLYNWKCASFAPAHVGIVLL
# Description: (§1) 2-Methylimidazolyl analogues were synthesized building on the hypothesis that 2-methylimidazole (pK a ∼ 7.9)[18] is a reasonable mimetic for N-terminal Gly in the peptide substrate (pK a ∼ 8.0).[19] To cover a range of basicity, imidazolyl (pK a ∼ 7.0) and amine analogues (pK a ∼ 10.0) were also synthesized, each exploring a range of chain lengths (n) (Table 1). To probe versatility at the C-terminus, primary amides, carboxylic acids, 2-cyclohexylethyl and 2-(1-cyclohexenyl)ethyl amides were incorporated. Using a previously reported fluorogenic assay,[20] inhibitors were tested against the parasitic enzymes and HsNMT1 in order to explore their selectivity against a relevant host enzyme. […] Further reduction of the chain length (11 and 12, n = 8 and 7, respectively) led to loss of detectable activity against Plasmodium NMTs and significant loss of activity against LdNMT and HsNMT1.
# PfNMT = molecular target: T2, PfNMT (Plasmodium falciparum, UniProt Q9U419); experiment: Fluorogenic NMT inhibition assay, PfNMT; format: biochemical; settings: recombinant enzyme; mean of duplicate or triplicate experiments
# T2 sequence (Q9U419 1-410): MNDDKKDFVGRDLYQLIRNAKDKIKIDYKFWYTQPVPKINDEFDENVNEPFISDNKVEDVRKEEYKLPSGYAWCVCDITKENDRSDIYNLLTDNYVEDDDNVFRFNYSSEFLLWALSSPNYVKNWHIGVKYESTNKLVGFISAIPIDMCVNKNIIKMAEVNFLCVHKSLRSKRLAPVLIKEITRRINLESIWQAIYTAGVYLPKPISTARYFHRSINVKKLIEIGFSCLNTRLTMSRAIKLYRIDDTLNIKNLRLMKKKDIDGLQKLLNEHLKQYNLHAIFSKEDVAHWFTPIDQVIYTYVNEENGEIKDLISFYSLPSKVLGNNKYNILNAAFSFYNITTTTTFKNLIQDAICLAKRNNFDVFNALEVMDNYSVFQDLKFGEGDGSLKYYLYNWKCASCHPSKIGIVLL
# Description: as §1
# LdNMT = experiment: Fluorogenic NMT inhibition assay, LdNMT; format: biochemical, L. donovani; settings: for IC50: recombinant enzyme, mean of duplicate or triplicate experiments
# Description: as §1
# HsNMT1 = molecular target: T3, HsNMT1 (Homo sapiens, UniProt P30419); experiment: Fluorogenic NMT inhibition assay, HsNMT1; format: biochemical, H. sapiens; settings: mean of duplicate or triplicate experiments
# T3 sequence (P30419 1-496): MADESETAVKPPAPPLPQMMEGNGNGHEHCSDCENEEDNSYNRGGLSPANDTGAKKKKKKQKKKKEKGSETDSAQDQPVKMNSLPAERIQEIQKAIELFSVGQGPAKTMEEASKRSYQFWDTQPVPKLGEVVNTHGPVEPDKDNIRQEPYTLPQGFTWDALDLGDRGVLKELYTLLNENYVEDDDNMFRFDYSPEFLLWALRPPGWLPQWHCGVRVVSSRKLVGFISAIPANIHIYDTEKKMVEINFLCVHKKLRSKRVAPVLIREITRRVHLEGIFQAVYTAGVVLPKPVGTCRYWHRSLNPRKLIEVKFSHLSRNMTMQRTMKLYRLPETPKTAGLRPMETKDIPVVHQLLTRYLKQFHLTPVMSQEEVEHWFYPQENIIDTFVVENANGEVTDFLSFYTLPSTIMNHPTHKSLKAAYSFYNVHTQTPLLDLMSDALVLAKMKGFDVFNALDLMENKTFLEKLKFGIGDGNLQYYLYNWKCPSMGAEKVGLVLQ
# Description: 2-Methylimidazolyl analogues were synthesized building on the hypothesis that 2-methylimidazole (pK a ∼ 7.9)[18] is a reasonable mimetic for N-terminal Gly in the peptide substrate (pK a ∼ 8.0).[19] To cover a range of basicity, imidazolyl (pK a ∼ 7.0) and amine analogues (pK a ∼ 10.0) were also synthesized, each exploring a range of chain lengths (n) (Table 1). To probe versatility at the C-terminus, primary amides, carboxylic acids, 2-cyclohexylethyl and 2-(1-cyclohexenyl)ethyl amides were incorporated. Using a previously reported fluorogenic assay,[20] inhibitors were tested against the parasitic enzymes and HsNMT1 in order to explore their selectivity against a relevant host enzyme.
# PvNMT [3] = molecular target: T1, PvNMT; experiment: Kinetic assay and Lineweaver-Burk plot, competitiveness of compound 10; format: biochemical
# Experimental: Unexpectedly, the electron maps indicated a mixture of ligand structures such that ∼20% of the electron density represents a N-myristoylated 10 product complex with the CoA by-product in LmNMT (Fig. 2D). This is the only structural evidence for a product complex in any N-myristoyltransferase, and captures and supports the proposed mechanism of action of NMT just prior to regeneration of the active enzyme. Kinetic experiments were performed to study 10 both as a potential substrate and as an NMT inhibitor. […] The N-myristoylation of 10 observed above therefore presumably occurs within the crystal where all reagents are present at high effective concentrations, and turnover is blocked by limited egress of products. […]
# 3. Kinetic studies of Compound 10. […]
# 1 / [Sub s tr ate] Rate / [Su b s tr ate]
# No inhibitor 0.6 μM 1.2 μM 2.4 μM
# Figure S3: Kinetic assay and Lineweaver-Burk plot studying the competitiveness of
# (§2) [Substrate] (µM) [S b[Substrate] (µM) tt ]
# Leishmania NMT = experiment: Substrate characteristics in Leishmania NMT; format: biochemical; settings: for KM as substrate / Vmax as substrate / Km: Leishmania NMT; for substrate activity: compound 10 tested up to 40 μM; for Km: read-out: KM as substrate
# Experimental: Unexpectedly, the electron maps indicated a mixture of ligand structures such that ∼20% of the electron density represents a N-myristoylated 10 product complex with the CoA by-product in LmNMT (Fig. 2D). This is the only structural evidence for a product complex in any N-myristoyltransferase, and captures and supports the proposed mechanism of action of NMT just prior to regeneration of the active enzyme. Kinetic experiments were performed to study 10 both as a potential substrate and as an NMT inhibitor. […] The N-myristoylation of 10 observed above therefore presumably occurs within the crystal where all reagents are present at high effective concentrations, and turnover is blocked by limited egress of products.
# To probe the degree to which 10 acts as a true peptidomimetic, we investigated the potential to switch from inhibitor to a peptidomimetic substrate. […] In native NMT substrates, N-terminal Gly is preferred to the exclusion of all other residues, with relatively non-sterically demanding residues such as alanine. […]
# as §2
# Hs pp60src(2-9) Compound 10 Compound 27 Compound 28
# Figure S4: Substrate characteristics of H. sapiens p60src(2-16), compound 10 and modified
# inhibitors 27 and 28 in Leishmania NMT.
# CaNMT = test system: CaNMT; design: method as in PMID 7783114; settings: read-out: KM as CaNMT substrate; cited from earlier work
Compound,IC50 (PvNMT [2]),IC50 (PfNMT),IC50 (LdNMT),IC50 (HsNMT1),Vmax as substrate (Leishmania NMT),other results
Cc1ncc[nH]1 [2-methylimidazole],–,–,–,–,–,pKa [1]: ~7.9
NCCCCCCCCCC(=O)N[C@@H](CO)C(=O)N[C@@H](CCCCN)C(=O)NCCC1CCCCC1 [Compound 10],0.68 ± 0.08 µM,24.3 ± 3.4 µM,0.024 ± 0.003 µM,0.06 ± 0.003 µM,Not measurable,"potency against LdNMT, fold higher than 2 (1H-imidazol-1-yl) (LdNMT; relative to compound 2): over 400 fold; potency against LdNMT, fold higher than 6 (2-methyl-1H-imidazol-1-yl) (LdNMT; relative to compound 6): > 20 fold; Vmax of substrate in presence of inhibitor (PvNMT [3]; 0.6 μM compound 10): 20701.0 ± 1047.4; Vmax of substrate in presence of inhibitor (PvNMT [3]; 1.2 μM compound 10): 19563.0 ± 1520.6; Vmax of substrate in presence of inhibitor (PvNMT [3]; 2.4 μM compound 10): 21120.3 ± 1651.4; mode of inhibition (PvNMT [3]; kinetic studies, Fig. S3): peptide-competitive inhibitor; KM as substrate (Leishmania NMT): Not measurable; substrate activity (Leishmania NMT): no substrate characteristics were detected"
NCCCC[C@H](NC(=O)[C@H](CO)NC(=O)CCCCCCNC(=O)CN)C(=O)NCCC1CCCCC1 [Compound 27],–,–,–,–,6596.4 ± 281.4 RFU.s-1,Km (Leishmania NMT): 1.3 µM; substrate activity (Leishmania NMT): substrate
C[C@H](N)C(=O)NCCCCCCC(=O)N[C@@H](CO)C(=O)N[C@@H](CCCCN)C(=O)NCCC1CCCCC1 [Compound 28],–,–,–,–,Not measurable,KM as substrate (Leishmania NMT): Not measurable; substrate activity (Leishmania NMT): no detectable substrate activity
NCCCCCCCCCC(=O)N[C@@H](CO)C(=O)N[C@@H](CCCCN)C(=O)NCCC1=CCCCC1 [Compound 16],3.55 ± 0.38 µM,> 100 µM,0.44 ± 0.04 µM,0.67 ± 0.04 µM,–,–
NCCCCCCCCCC(=O)N[C@@H](CO)C(=O)N[C@@H](CCCCN)C(=O)O [Compound 26],> 100 µM,> 100 µM,> 100 µM,92.1 ± 17.6 µM,–,–
GSNKSKPK-NH2 [reference compound],–,–,–,–,113616.7 ± 3962.0 RFU.s-1,Km (Leishmania NMT): 22.6 µM
GLYASKLS-NH2 [CaNMT octapeptide substrate],–,–,–,–,–,Km (CaNMT): 0.6 µM
Cc1nccn1CCCCCCCCCCC(=O)N[C@@H](CO)C(=O)N[C@@H](CCCCN)C(=O)NCCC1CCCCC1 [Compound 5],> 100 µM,> 100 µM,> 100 µM,21.8 ± 0.8 µM,–,–
NCCCCCCCCC(=O)N[C@@H](CO)C(=O)N[C@@H](CCCCN)C(N)=O [Compound 23],> 100 µM,> 100 µM,27.1 ± 2.6 µM,33.1 ± 2.5 µM,–,–
NCCCCCCCCC(=O)N[C@@H](CO)C(=O)N[C@@H](CCCCN)C(=O)NCCC1CCCCC1 [Compound 11],> 100 µM,> 100 µM,2.01 ± 0.3 µM,7.68 ± 0.86 µM,–,–
NCCCCCCCCCCC(=O)N[C@@H](CO)C(=O)N[C@@H](CCCCN)C(=O)NCCC1=CCCCC1 [Compound 15],12.9 ± 1.07 µM,> 100 µM,6.6 ± 1.28 µM,2.3 ± 0.14 µM,–,–
